Measured values reported in US20230049350A1, “COMPOUNDS FOR TREATING BRAIN CANCER” (Purdue Pharmaceutical Products L.P., priority 2014, published 2023).
Where two headings read alike, the source gives them in different places.

How the values were obtained:
U87 tumours = assay: Mice with implanted U87 tumours, time to progression (Example 3); type: in vivo; settings: 60 mg/kg iv days 1, 8 and 15, FIG. 9
Experimental: The above procedure was followed in similar manner using the cell lines U87G and U251G. Once again, EDO-S101 (60 mg/kg) was administered intravenously via the tail vein, but in these experiments it was administered at days 1, 8 and 15. In place of bendamustime, TMZ was administered as a comparison at 16 mg/kg for 5 consecutive days, po. The mice were sacrificed after 28 days.

[1] = CNS pharmacokinetics by blood and brain-ventricle microdialysis, CE-UV; type: in vivo, Sprague-Dawley Rats; settings: Sprague-Dawley, rat; for Cmax: intravenous, 40 mg/kg tail vein injection; for AUC(0-t): read-out: AUC (0-12) (converted); for half-life: iv, 40 mg/kg
Experimental: CNS pharmacokinetics was determined in rats after a tail vein injection of EDO-S101 at 40 mg/kg. Microdialysate samples were collected from the blood and a ventricle of the brain via microdialysis probes at 18 time intervals. The drug concentrations in these samples were determined by capillary electrophoresis with UV detection (CE-UV) followed by calculations for various pharmacokinetic parameters.
Six rats were anesthetized with gasiform isoflurane (1% isoflurane in a mixture of 20% oxygen and 80% nitrogen gas) and immobilized in a stereotaxic frame (KOPF Instruments, Tujunga, CA). Anaesthesia was maintained during the entire procedure. Each guide cannula (CMA Microdialysis Inc., Acton, MA) was stereotactically implanted into the lateral ventricle (AP -0.9, L 1.6, V 3.4, relative to bregma and skull), then secured to the skull by screws and dental cement. Following surgery, each rat was housed individually with food and water ad libitum for 3 days for recovery from cannulation surgery. Microdialysis experiments were carried out on conscious, freely moving rat. On the day of the experiment, the stylet in the guide cannula was replaced with the microdialysis probe (CMA/11 with 4 mm membrane, CMA Microdialysis Inc., Acton, MA) and a vascular microdialysis probe (CMA/20 with 4 mm membrane, CMA Microdialysis Inc, Acton, MA)) was implanted into the jugular vein. The probes had inlet tubes connected to syringes to deliver artificial cerebrospinal fluid (146 mM NaCl, 1.2 mM CaCl2, 3 mM KCI, 1 mM MgCl2, 1.9 mM Na2HPO4, 0.1 mM NaH2PO4, pH 7.4) into the ventricle and Dulbecco’s phosphate-buffered saline (D-PBS) into the blood at 0.5 µl/min flow rate. The outlet tubes were connected to a microfraction collector for collecting the microdailysates at 4° C. The rats were allowed to recover for at least 24 hours prior to dosing. Eighteen samples were collected over 3 hours after EDO-S101 injection (intravenously). All samples were applied to the capillary electrophoresis with UV detection (CE-UV) for the determination of concentration of EDO-S101 in the cerebrospinal fluid (CSF) and blood. The rats were sacrificed using CO2 inhalation after the experiment. The position of the probe was verified by visual inspection at the end of each experiment.
EDO-S101 in the microdialysate were measured by CE-UV (Agilent 3D CE). Briefly, the capillaries were preconditioned with 1 M sodium hydroxide for 2 min, water for 2 min and running buffer [100 mmol/l solution of ammonium acetate (adjust to pH 3.1 with acetic acid)-acetonitrile (50:50, v/v) ] for 3 min. The samples were injected at a pressure of 0.7 psi for 5 s and the injection volume was approximately 5 nl. After injection, EDO-S101 was separated in a fused silica capillary of 50 µm I.D. and 50/65 cm length (effective length/total length) under 15 kv and 25° C. The absorbance from EDO-S101 was detected with UV at […]. […].
To perform a statistical analysis on the data, a two-way repeated measures ANOVA followed by Tukey’s test was used. P<0.05 was considered significant. CNS penetration is determined as the ratio of CSF and blood area under the curve (AUC).

[2] = CSF (brain lateral ventricle microdialysate), Brain (CSF), 40 mg/kg iv
[3] = blood (jugular vein microdialysate), Blood, 40 mg/kg iv

Which “time to progression (TTP) versus control and TMZ” value (U87 tumours) does the source give for `Cn1c(CCCCCCC(=O)NO)nc2cc(N(CCCl)CCCl)ccc21` [EDO-S101] here?
Its value is “significantly longer”.

What about the Cmax ([1]; CSF (brain lateral ventricle microdialysate), Brain (CSF)) of the same compound?
Its Cmax is 11.2 µM.

What about the Tmax [1, 2] of the same compound?
Its Tmax is 5.67 min.

And the AUC(0-t) [1, 2]?
Its AUC(0-t) is 2.27 µM·h.

And the Cmax ([1]; blood (jugular vein microdialysate), Blood)?
The Cmax was 184 µM.

What about the Tmax [1, 3] of the same compound?
The Tmax was 2.33 min.

And the AUC(0-t) [1, 3]?
Its AUC(0-t) is 13.7 µM·h.

What about the half-life [1, 2] of the same compound?
The half-life was roughly 9 min.

What about the half-life [1, 3] of the same compound?
Its half-life is roughly 6 min.

And the Kp ([1]; ratio of CSF and blood AUC, 40 mg/kg iv, read-out: AUC ratio (Brain:Blood), CNS penetration)?
The Kp was 0.165.
